From patent US5545669A, “Anti-inflammatory compounds” (priority 1994, dated 1996)

How the values were obtained:
[1] = test system: Arachidonic acid induced ear inflammation; experiment: Assay (h): Arachidonic acid induced ear inflammation (ear edema and MPO); type: in vivo, mouse; conditions: for effect in the AA ear model (in words): at concentrations which were effective in the TPA ear model
Description: (§1) Male Balb/c inbred mice were obtained from Charle River Breeding Laboratories (Kingston, N.Y.). Within a single experiment mice (22-25 g) were age-matched. These in vivo experiments typically involved use of 5-6 animals/group.
(§2) On the day of the assay, partially thawed ear tissues were minced and then homogenized (10% w/v) with a Tissumizer homogenizer (Tekmar Co.) in 50 mM phosphate buffer (pH 6) containing 0.5% HTAB. The tissue homogenates were taken through three cycles of freeze-thaw, followed by brief sonication (10 sec). The method of Bradley et al. was used with modifications as described. […] Supernatant MPO activity was quantified kinetically (change in absorbance measured over 3 min, sampled at 15-sec intervals) using a Beckman DU-7 spectrophotometer and a Kinetics Analysis package (Beckman Instruments, Inc.). One unit of MPO activity is defined as that degrading one micromole of peroxide per minute at 25° C.
Arachidonic acid is dissolved in acetone (ling/ear) to the left ear of BALB/c male mice. The thickness of both ears was measured with a constant pressure thickness guage 1 hour after treatment and the data expressed as the change in thickness between treated and untreated ears. Test compounds or vehicle are given at the time of AA applciation. The inflammatory cell infiltration is measured by MPO activity as described above in the TPA ear edema assay. After the edema measurements are made, the inflamed ears are removed and assayed for MPO activity.

[2] = test system: TPA-induced Mouse Ear Inflammation; experiment: Assay (g): TPA-induced mouse ear inflammation (ear edema and MPO); type: in vivo; conditions: for TPA % change in edema / change in MPO for TPA model: topically administered, doses 0.2 (dexamethasone), 0.1 (scalaradial), 0.3 (WY 50,295), dose unit not given
Description: as §1
TPA (12-0-tetradecanoylphorbol 13-acetate) (Sigma Chemical Company) in acetone (4 mg/20 ml) was applied to the inner and outer surfaces of the left ear of BALB/c male mice. The thickness of both ears was then measured with a dial micrometer (Mitutoyo, Japan) at both 2 and 4 hours after treatment, and the data expressed as the change in thickness (10^-3 cm) between treated and untreated ears. […] After measuring the edema, the inflammed left ears were removed and stored at -70° C. until they were assayed for MPO (myeloperoxidase) activity where appropriate.
as §2
Statistical analysis was done using Student's "t" test.

[3] = test system: PGE2 release by human monocytes; experiment: Assay (f): stimulated eicosanoid release by human monocytes, Prostaglandin E2; type: cell-based; conditions: Monocyte, 0.25 h, A23187 1 μM, 15 min
Description: (§3) Human Monocyte Isolation. Leukocyte-rich leukopaks obtained from Biological Specialties (Lansdale, Pa.) were collected from male volunteers who were not taking antiinflammatory drugs. Leukopaks were centrifuged (90×g for 15 min) twice to remove the platelet-rich plasma. The cell pellet was washed by centrifugation and resuspended in HBSS without Ca^2+ or Mg^2+. Histopaque 1077 was layered under the cell suspension and centrifuged at 400×g for 30 min to obtain the buffy coat. The interfacial buffy coat, containing monocytes and lymphocytes, was removed and saved. The buffy coat was washed twice with HBSS Without Ca^2+ or Mg^2+ by centrifugation. The cell pellet (4-6×10^8 cells/30 mls) was resuspended in iso-osmotic media (RPMI-1640, 10% heat inactivated fetal bovine serum (FBS), 0.2 mM L-glutamine, 2.5 mM HEPES) and layered over an equal volume of 46% Percol mixture (10X PBS/Percol; 9.25/0.75) and 54% iso-osmotic media and centrifuged for 30 min at 1000×g (Marshall and Roshak, Biochem. Cell Biol. 71: 331-339, 1993). The monocyte population located at the interface of the Percoll gradient was removed and washed twice in HBSS without Ca^2+ or Mg^2+.
(§4) Measurement of Stimuli-Induced Eicosanoid Release Monocytes (5×10^6 /ml) were incubated as a suspension in serum-free RPMI-1640 medium containing the vehicle DMSO (<1%) or drug for 30 min at 27° C. after which vehicle or stimuli was added for the indicated time. The stimulating agent is solubilized in DMSO and appropriate vehicle controls were included in all experiments. The amount of stimuli was chosen from the linear portion of a concentration versus product curve usually representing 60-80% maximal stimulation over the indicated incubation time at 37° C. (A23187, 1 μM,(15 min). The reaction was terminated by reduction of pH through addition of citric acid and centrifugation (10 min, 400×g, 4° C.). Cell viability was monitored before and after experiments using trypan blue exclusion. The cell-free media was decanted and stored at -70° C. until analyzed. Prostaglandin E2 and LTC4 were directly measured in cell-free media using enzyme immunoassay (EIA) kits purchased from Caymen Chemical Co. (Ann Arbor, Mich.). Sample or standard dilutions were made with appropriate media and analyzed in triplicate. Results were obtained by extrapolation from a standard curve prepared in the media and expressed as pg or ng/ml of sample.

[4] = test system: LTC4 release by human monocytes; experiment: Assay (f): stimulated eicosanoid release by human monocytes, LTC4; type: cell-based; conditions: Monocyte, 0.25 h, A23187 1 μM, 15 min
Description: as §3, §4

[5] = topically administered, doses 0.2 (dexamethasone), 0.1 (scalaradial), 0.3 (WY 50,295), dose unit not given

IC50 [3]	IC50 [4]	Structure (SMILES)	effect in the AA ear model (in words) [1]	AA change in edema [1, 5]	TPA % change in edema [2]	also measured
> 3 µM	0.05 µM	CCC(C)(C)c1ccc(Oc2ccc(C(F)(F)F)cc2NS(=O)(=O)c2cc(C(F)(F)F)cc(C(F)(F)F)c2)c(C(=O)O)c1 [Example 17, 2-[2-[3,5-Bis(trifluoromethyl)phenyl]sulfonamido-4-trifluoromethylphenoxy]-5-(1,1-dimethylpropyl)benzoic acid]				
10 to 20 µM	1 µM	CCCCCCCCS(=O)(=O)Nc1ccccc1Oc1ccccc1C(=O)O [Example 11, 2-[2-(Octylsulfonamido)phenoxy]benzoic acid]				
> 30 µM	1 µM	Cc1ccc(Oc2ccccc2C(=O)O)c(NS(=O)(=O)c2cc(C(F)(F)F)cc(C(F)(F)F)c2)c1 [Example 12, 2-[2-[3,5-bis(Trifluoromethyl)phenylsulfonamido]-4-methylphenoxy]benzoic acid]				

Second part, the molecule before the results:

Structure (SMILES)	IC50 [3]	IC50 [4]	effect in the AA ear model (in words) [1]	AA change in edema [1, 5]	TPA % change in edema [2]	also measured
C[C@H](C(=O)O)c1ccc2cc(OCc3ccc4ccccc4n3)ccc2c1 [WY 50,295]			strongly inhibits inflammation	-50%	-18%	change in MPO for TPA model [2]: -36
O=C(O)c1ccccc1Oc1ccc(C(F)(F)F)cc1NS(=O)(=O)c1ccc2ccccc2c1 [Example 3, 2-[2-(2-Naphthylsulfonamido)-4-trifluoromethylphenoxy]benzoic acid]	> 30 µM	2 µM				
O=C(O)c1ccccc1Oc1ccccc1NS(=O)(=O)c1cc(C(F)(F)F)cc(C(F)(F)F)c1 [Example 10, 2-[2-[3,5-Bis(trifluoromethyl)phenylsulfonamido]phenoxy]benzoic acid]	> 100 µM	1 µM				
CN(c1cc(C(F)(F)F)ccc1Oc1ccccc1C(=O)O)S(=O)(=O)c1cc(C(F)(F)F)cc(C(F)(F)F)c1 [Example 27, 2-[2-[3,5-bis(Trifluoromethyl)phenyl-N-methylsulfonamido]-4-trifluoromethylphenoxy]benzoic acid]						inhibition in the MPO assay ([2]; mouse ear inflammation, MPO): positive inhibition; response in the Edema aspects of this animal model ([2]; mouse ear inflammation, edema): not a significant response
CC(=O)O[C@H]1C[C@@H]2[C@@]3(C)CCCC(C)(C)[C@@H]3CC[C@@]2(C)[C@@H]2CC=C(C=O)[C@H](C=O)[C@@]12C [scalaradial]			little or no effect	-11%	-46%	
C[C@@H]1C[C@H]2[C@@H]3CCC4=CC(=O)C=C[C@]4(C)[C@@]3(F)[C@@H](O)C[C@]2(C)[C@@]1(O)C(=O)CO [dexamethasone]			little or no effect	-10%	-50%	change in MPO for AA [1, 5]: 0; change in MPO for TPA model [2]: -54
